Measurements reported in patent US20240109930A1, “TRIAZOLYL-METHYL SUBSTITUTED ALPHA-D-GALACTOPYRANOSIDE DERIVATIVES” (Idorsia Pharmaceuticals Ltd, priority 2021, published 2024).

Legend:
human Gal-3 (hGal-3) = human Gal-3 (hGal-3) (Homo sapiens (Human), UniProt P17931); assay: Competitive binding assay: biotinylated hGal-3 binding to microplate-adsorbed asialofetuin (ASF); conditions: IC50 values from several measurements given as geomean
Protocol: (§1) The inhibitory activity of compounds is determined in competitive binding assays. This spectrophotometric assay measures the binding of biotinylated human Gal-3 (hGal-3) or human Gal-1 (hGal-1), respectively, to a microplate-adsorbed glycoprotein, asialofetuin (ASF) (Proc Natl Acad Sci USA. 2013 Mar. 26; 110(13):5052-7.). Alternatively, and preferably, a human Gal-1 version in which all six cysteines are substituted by serines may be used.
(§2) Briefly, compounds are serially diluted in DMSO (working dilutions). ASF-coated 384well plates are supplemented with 22.8 μL/well of biotinylated hGal-3 or hGal-1 in assay buffer (i.e. 300-1000 ng/mL biotinylated hGal-3 or hGal-1) to which 1.2 μL of compound working dilutions are added and mixed.
(§3) Plates are incubated for 3 hours at 4° C., then washed with cold assay buffer (3×50 uL), incubated for 1 hour with 25 μL/well of a streptavidin-peroxidase solution (diluted in assay buffer to 80 ng/mL) at 4° C., followed by further washing steps with assay buffer (3×50 uL). Finally, 25 μL/well of ABTS substrate is added.
(§4) The calculated IC50 values may fluctuate depending on the daily assay performance. Fluctuations of this kind are known to those skilled in the art. IC50 values from several measurements are given as geomean values.

human Gal-1 (hGal-1) = human Gal-1 (hGal-1) (Homo sapiens, UniProt P09382, C131S/C17S/C43S/C61S/C89S); assay: Competitive binding assay: biotinylated hGal-1 binding to microplate-adsorbed asialofetuin (ASF); conditions: IC50 values from several measurements given as geomean
Protocol: as §1, §2, §3, §4

Sequence of human Gal-3 (hGal-3) (P17931 whole entry): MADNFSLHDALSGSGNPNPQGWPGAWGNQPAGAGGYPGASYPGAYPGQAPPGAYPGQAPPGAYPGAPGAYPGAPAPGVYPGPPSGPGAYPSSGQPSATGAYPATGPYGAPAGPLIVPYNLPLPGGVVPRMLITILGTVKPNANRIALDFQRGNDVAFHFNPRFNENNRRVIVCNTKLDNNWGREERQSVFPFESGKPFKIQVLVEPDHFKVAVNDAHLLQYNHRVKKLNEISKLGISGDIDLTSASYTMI

Structure (SMILES) | IC50 (human Gal-3 (hGal-3)) | IC50 (human Gal-1 (hGal-1))
CO[C@@H]1[C@@H](n2cc(-c3ccc(Cl)c(F)c3F)nn2)[C@@H](O)[C@@H](CO)O[C@@H]1Cc1cn([C@@H]2COC[C@H]2F)nn1 (single isomer, unassigned) [Example 2.1.74.C, (2R,3R,4S,5R,6R)-4-(4-(4-chloro-2,3-difluorophenyl)-1H-1,2,3-triazol-1-yl)-6-((1-((3R*,4S*)-4-fluorotetrahydrofuran-3-yl)-1H-1,2,3-triazol-4-yl)methyl)-2-(hydroxymethyl)-5-methoxytetrahydro-2H-pyran-3-ol] | 60 nM | 3940 nM
CO[C@@H]1[C@@H](n2cc(-c3ccc(Cl)c(F)c3F)nn2)[C@@H](O)[C@@H](CO)O[C@@H]1Cc1cn([C@@H]2COC[C@H]2F)nn1 (single isomer, unassigned) [Example 2.1.74.D, (2R,3R,4S,5R,6R)-4-(4-(4-chloro-2,3-difluorophenyl)-1H-1,2,3-triazol-1-yl)-6-((1-((3R*,4S*)-4-fluorotetrahydrofuran-3-yl)-1H-1,2,3-triazol-4-yl)methyl)-2-(hydroxymethyl)-5-methoxytetrahydro-2H-pyran-3-ol] | 70 nM | 3540 nM
CO[C@@H]1[C@@H](n2cc(-c3ccc(Cl)c(F)c3F)nn2)[C@@H](O)[C@@H](CO)O[C@@H]1Cc1cn(C2(C(F)(F)F)CCOC2)nn1 (single isomer, unassigned) [Example 2.1.77.B] | 30 nM | 590 nM
CO[C@@H]1[C@@H](n2cc(-c3ccc(Cl)c(F)c3F)nn2)[C@@H](O)[C@@H](CO)O[C@@H]1Cc1cn(C2(C(F)F)CCOC2)nn1 (single isomer, unassigned) [Example 2.1.78.A] | 40 nM | 360 nM
CO[C@@H]1[C@@H](n2cc(-c3ccc(Cl)c(F)c3F)nn2)[C@@H](O)[C@@H](CO)O[C@@H]1Cc1cn(C2(C(F)F)CCOC2)nn1 (single isomer, unassigned) [Example 2.1.78.B] | 20 nM | 240 nM
CO[C@@H]1[C@@H](n2cc(-c3ccc(Cl)c(F)c3F)nn2)[C@@H](O)[C@@H](CO)O[C@@H]1Cc1cn(C2CCCCC2(F)F)nn1 (single isomer, unassigned) [Example 2.1.80.A] | 20 nM | 1020 nM
CO[C@@H]1[C@@H](n2cc(-c3ccc(Cl)c(F)c3F)nn2)[C@@H](O)[C@@H](CO)O[C@@H]1Cc1cn(C2CCCCC2(F)F)nn1 (single isomer, unassigned) [Example 2.1.80.B] | 30 nM | 1740 nM
CO[C@@H]1[C@@H](n2cc(-c3ccc(Cl)c(F)c3F)nn2)[C@@H](O)[C@@H](CO)O[C@@H]1Cc1cn([C@@H]2CC[C@@H]2F)nn1 (single isomer, unassigned) [Example 2.1.88.B, (2R,3R,4S,5R,6R)-4-(4-(4-chloro-2,3-difluorophenyl)-1H-1,2,3-triazol-1-yl)-6-((1-((1R*,2S*)-2-fluorocyclobutyl)-1H-1,2,3-triazol-4-yl)methyl)-2-(hydroxymethyl)-5-methoxytetrahydro-2H-pyran-3-ol] | 30 nM | 920 nM
CO[C@@H]1[C@@H](n2cc(-c3ccc(Cl)c(F)c3F)nn2)[C@@H](O)[C@@H](CO)O[C@@H]1Cc1cn([C@@H]2CC[C@H]2F)nn1 (single isomer, unassigned) [Example 2.1.88.D, (2R,3R,4S,5R,6R)-4-(4-(4-chloro-2,3-difluorophenyl)-1H-1,2,3-triazol-1-yl)-6-((1-((1R*,2R*)-2-fluorocyclobutyl)-1H-1,2,3-triazol-4-yl)methyl)-2-(hydroxymethyl)-5-methoxytetrahydro-2H-pyran-3-ol] | 40 nM | 2270 nM
CO[C@@H]1[C@@H](n2cc(-c3ccc(Cl)c(F)c3F)nn2)[C@@H](O)[C@@H](CO)O[C@@H]1Cc1cn(C2CCOCC2(F)F)nn1 (single isomer, unassigned) [Example 2.1.89.A] | 10 nM | 100 nM
CO[C@@H]1[C@@H](n2cc(-c3ccc(Cl)c(F)c3F)nn2)[C@@H](O)[C@@H](CO)O[C@@H]1Cc1cn(C2CCOCC2(F)F)nn1 (single isomer, unassigned) [Example 2.1.89.B] | 20 nM | 870 nM
